“And” between values parts separate entries of the source, which are not always exact repeats. Equal entries are not always repeated.
Columns and labels:
[1] = Pharmacokinetics of intact platinum-based drugs in rats (UPLC-MS/MS) in blood, plasma and ultrafiltrate plasma; details: intraperitoneal; for complete elimination time of intact drug: equal moles, plasma and ultrafiltrate plasma
Protocol: The biological samples were pretreatmented by precipitation with acetonitrile. To each 50 µl sample volume, 200 µl of acetonitrile containing IS (25 ng/ml) was added. The samples were then centrifuged for 10 min at 15,000 rpm, after which 5 µl of the supernatant was injected into the UPLC column for analysis of intact drug.
The ACQUITY UPLC I class system consisted of an autosampler, pump, column oven, and controller (waters, MA, USA). Chromatographic separation was performed on an ACQUITY UPLC BEH Amide column (Part NO:186004800, 1.7 µm, 2.1 × 50mm, Waters, MA, USA) and the pre-column is ACQUITY UPLC BEH C18 (1.7µm, Waters, MA, USA). The binary mobile phase consisted of mobile phase B: acetonitrile and mobile phase A: water containing 5 mm ammonium acetate. The injection volume was 5 µl and the column temperature was 40°C. The gradient program was as follows: 0–1 min, 95% phase B; 1–2 min, 95–70% phase B; 2–4 min,70% phase B; 4–5 min, 70–95% phase B; 5–7min, 95% phase B. The total run time is 7.0 min and the flow rate was set at 0.6 ml/min.
The UPLC system was interfaced with a Xevo TQ-XS Mass Spectrometer with MassLynx V4.2 software package (Waters, MA, USA). The mass spectrometer was operated using Turbo Spray source in positive multiple-reaction monitoring-mode (MRM) for intact drug determination. […] The optimal parameters for MS/MS conditions are as follows: capillary 2.4 kV; cone 25 V; desolvation temperature 450 °C.
The assay method was evaluated with four kinds of matrix including blood, plasma, ultrafiltrate plasma, and cell lysate. […] The precision and accuracy for three intact platinum-based drugs in blood/plasma/ultrafiltrate plasma were investigated by replicate analysis of six sets of samples at four concentration levels: 2, 5, 200, and 4,000 ng/ml. The precision and accuracy for the assay method in cell lysate were investigated at four concentration levels of 2, 5, 20, and 160 ng/ml.
(§1) Male Sprague-Dawley rats (n = 18, 200 ± 20g) were provided by Shanghai Jiesijie Experimental Animal Co., Ltd (Shanghai, China) and certificate number was scxk (hu) 2013-0006. Animals were allowed to adapt to the housing environment for 1 week prior to study. […] All animal studies were approved by the Animal Ethics Committee of China Pharmaceutical University.
(§2) Blood-sampling times were arranged as 0, 0.083, 0.5, 1, 2, 4, 8, 12, 24, 48, 72h post-dose for all three platinum-based anticancer drugs. When each time point reached, blood samples (about 800 µl) were collected from the fossa orbitalis. 150 µl of the blood was spiked into another 1.5 ml tube as the blood sample. The rest of the blood was centrifuged immediately at 8,000 rpm for 10 min and the supernatant plasma was harvested. 50 µl of the supernatant plasma was spiked into 1.5 ml for determining total platinum in plasma sample and 50 µl of the supernatant plasma was spiked into 1.5 ml tube for determining intact platinum-based drug in plasma. The remaining plasma was used to prepare ultrafiltrate plasma with Amicon® Ultra 10K Centrifugal Filter Devices, centrifuged at 14,000 g for 20 min. All the samples were stored at -80 °C until analysis.
(§3) The pharmacokinetic parameters were calculated using the software WinNonlion Version 6.4 by non-compartmental method. Statistical significance was tested by Student’s t -test. P < 0.05 was considered statistically significant, while P < 0.01 was considered highly significant.

[2] = Pharmacokinetics of total platinum in rats (ICP-MS) in blood, plasma and ultrafiltrate plasma; details: intraperitoneal, 16.7 nmol/kg, mean ± sd (n = 6)
Protocol: The biological samples were pretreatmented by adding 60-fold volume of ICP-MS diluent, which is an aqueous solution containing 2% nitric acid and 0.5% Triton. After vortex for 30 s, the samples were placed quietly for few minutes to obtain a clear supernatant for ICP-MS analysis of total platinum.
Platinum determination was performed with a NexION 2000 Inductively Coupled Plasma-Mass Spectrometer and a Syngistix™ Software-ES version 2.4 (PerkinElmer, USA). Instrumental settings were optimized in order to yield maximum sensitivity for platinum, with the scan mode Peak Hopping, Dwell time per AMU 50 ms and single MCA Channel. […] The assay method was evaluated with four kinds of matrix including blood, plasma, ultrafiltrate plasma, and cell lysate.
as §1, §2, §3

HCT-116 cells [3] = assay: Uptake of oxaliplatin (total platinum and intact drug) in HCT-116 cells
Protocol: (§4) Human colon cancer HCT-116 and LOVO cell line was purchased from cell bank of Shanghai Institute of Biochemistry and Cell Biology (Shanghai, China). HCT-116 cells and LOVO cells were maintained as monolayer cultures respectively in McCoy’s 5a medium and F-12K medium, supplemented with 10% fetal bovine serum, 1% penicillin and streptomycin, in a water-saturated atmosphere (95% air/5% CO2) at 37°C.
(§5) For the temperature dependent study, the cell monolayers were treated with 4 ml drug-containing medium at 200 µm for 30 min incubation respectively at 4 °C and 37 °C.
(§6) Finally, all the monolayers of cells treated with drug-containing medium were washed three times with cold HBSS. Then cells were harvested by 0.25% trypsin digestion and the resulting cell suspension was centrifuged at 1,000 rpm for 5 min. For the uptake and elimination studies, pellets were then diluted in appropriate volume of water and repeatedly freeze-thawed three times to obtain drug-containing cell samples. For the subcellular distribution study, the pellets were further treated according to the manufacturer’s protocol of mitochondrial/nuclear separation kit (KeyGEN BioTECH, Nanjing, China) with differential centrifugation method to prepare the isolated cytosol, nucleus, and mitochondria samples. The cytosol, nucleus, and mitochondria were dissolved in the corresponding buffer salt from the instruction. An aliquot of 20 μl of each cellular or subcellular sample was removed for protein determination using BCA protein assay kit according to the manufacturer’s instructions (micro-well plate protocol).

LOVO cells [4] = assay: Uptake of oxaliplatin (total platinum and intact drug) in LOVO cells
Protocol: as §4, §5, §6

HCT-116 cells [5] = assay: Elimination of oxaliplatin in HCT-116 cells; type: in vitro ADME, Human; details: HCT-116, 200 µm oxaliplatin 30 min
Protocol: (§7) Cells were used for studying cellular pharmacokinetics of oxaliplatin.
(§8) Then the drug-containing medium was discarded and the cell monolayers were washed three times with cold HBSS. After that, fresh blank medium was added to the monolayers with incubation for different times of 5, 15, 30, 45, 60, 120 min.
(§9) To evaluate the elimination behavior of oxaliplatin in colon cancer cells, both oxaliplatin and total platinum of samples are determined by UPLC-MS/MS and ICP-MS method. The results are all normalized to cell protein.

LOVO cells [6] = assay: Elimination of oxaliplatin in LOVO cells; type: in vitro ADME, Human; details: 200 µm oxaliplatin 30 min
Protocol: as §7, §8, §9

HCT-116 cells [7] = assay: Subcellular distribution of oxaliplatin (total Pt by ICP-MS) in HCT-116 cells; details: HCT-116, 200 µm oxaliplatin, within 2 h
Protocol: as §4
(§10) We treated the cell monolayers in the same way as the uptake study above.
as §6, with “An aliquot of 20 μl of each cellular or subcellular sample was removed for protein determination using BCA protein assay kit according to the manufacturer’s instructions (micro-well plate protocol).” left out
(§11) All the prepared subcellular samples for cytosol, nucleus, and mitochondria are determined by ICP-MS method.

LOVO cells [8] = assay: Subcellular distribution of oxaliplatin (total Pt by ICP-MS) in LOVO cells; details: 200 µm oxaliplatin, within 2 h
Protocol: as §4, §10
as §6, with “An aliquot of 20 μl of each cellular or subcellular sample was removed for protein determination using BCA protein assay kit according to the manufacturer’s instructions (micro-well plate protocol).” left out
as §11

[9] = intact drug in blood, 16.7 nmol/kg, mean ± sd (n = 6)
[10] = intact drug in plasma, 16.7 nmol/kg, mean ± sd (n = 6)
[11] = intact drug in ultrafiltrate plasma, 16.7 nmol/kg, mean ± sd (n = 6)
[12] = total Pt in ultrafiltrate plasma
[13] = HCT-116, 200 µm oxaliplatin, 15-120 min, normalized to cellular protein
[14] = 200 µm oxaliplatin, 15-120 min, normalized to cellular protein
[15] = ng Pt/mg protein of subcellular organelles

Structure (SMILES) | Cl [1, 9] | Cmax [1, 9] | T1/2 [1, 9] | Vz [1, 9] | Cl [1, 10] | Cmax [1, 10] | T1/2 [1, 10] | Vz [1, 10] | Cl [1, 11] | Cmax [1, 11] | T1/2 [1, 11] | Vz [1, 11] | complete elimination time of intact drug ([1]; intact drug in blood) | Vz ([2]; total Pt in blood) | Cl ([2]; total Pt in plasma) | Vz ([2]; total Pt in plasma) | Cl [2, 12] | Vz [2, 12] | further results
O=C1[O][Pt]2([NH][C@@H]3CCCC[C@H]3[NH]2)[O]C1=O [oxaliplatin, Oxaliplatin] | 49 mL/h/kg and 49 ± 6.6 mL/h/kg | 0.42 ± 0.06 µM | 33 ± 2.4 min | 0.0408 L/kg and 0.0408 ± 0.0058 L/kg | 6.9 mL/h/kg and 6.9 ± 0.6 mL/h/kg | 3.9 ± 0.34 µM | 10.8 ± 0 min | 0.0018 L/kg and 0.0018 ± 0.0001 L/kg | 7.2 mL/h/kg and 7.2 ± 1.7 mL/h/kg | 3.93 ± 0.45 µM | 10.8 ± 0.6 min | 0.0019 ± 0.0006 L/kg | 2 h | 0.001 L/kg | 0.1 mL/h/kg | 0.004 L/kg | 1.4 mL/h/kg | 0.038 L/kg | cellular concentration of total platinum and intact oxaliplatin versus medium concentration (HCT-116 cells [3]; HCT-116, 20-500 µM oxaliplatin, 30 min): increased with increasing medium concentration of oxaliplatin; cellular accumulation of intact oxaliplatin over incubation time (HCT-116 cells [3]; [13]): increased over incubation time at the beginning of drug treatment (0–45 min), then gradually decreased (45–120 min); cellular total platinum over incubation time (HCT-116 cells [3]; [13]): increased within increasing incubation time; cellular accumulation of platinum or oxaliplatin versus temperature (HCT-116 cells [3]; HCT-116, 200 µm oxaliplatin, 30 min, 4 °C vs 37 °C, P < 0.001): significant higher at 37 °C than that at 4 °C; cellular concentration of total platinum and intact oxaliplatin versus medium concentration (LOVO cells [4]; 20-500 µM oxaliplatin, 30 min): increased with increasing medium concentration of oxaliplatin; cellular accumulation of intact oxaliplatin over incubation time (LOVO cells [4]; [14]): increased over incubation time at the beginning of drug treatment (0–45 min), then gradually decreased (45–120 min); cellular total platinum over incubation time (LOVO cells [4]; [14]): increased within increasing incubation time; cellular accumulation of platinum or oxaliplatin versus temperature (LOVO cells [4]; 200 µm oxaliplatin, 30 min, 4 °C vs 37 °C, P < 0.001): significant higher at 37 °C than that at 4 °C; time to complete elimination of cellular intact oxaliplatin (HCT-116 cells [5]; then blank medium): 1 h; cellular platinum after change to blank medium (HCT-116 cells [5]; then blank medium up to 2 h): just has a little decrease in 2 h; time to complete elimination of cellular intact oxaliplatin (LOVO cells [6]; then blank medium): 1 h; cellular platinum after change to blank medium (LOVO cells [6]; then blank medium up to 2 h): just has a little decrease in 2 h; subcellular accumulation of Pt in organelles over incubation time (HCT-116 cells [7]): increased with the increasing incubation time; order of Pt concentration in cytosol, mitochondria and nucleus (HCT-116 cells [7]; [15]): the concentration of Pt in cytosol is more than that in mitochondria, followed by the concentration of Pt in nucleus; subcellular accumulation of Pt in organelles over incubation time (LOVO cells [8]): increased with the increasing incubation time; order of Pt concentration in cytosol, mitochondria and nucleus (LOVO cells [8]; [15]): the concentration of Pt in cytosol is more than that in mitochondria, followed by the concentration of Pt in nucleus
N.N.O=C([O-])C1(C(=O)[O-])CCC1.[Pt+2] [carboplatin, Carboplatin] | 1.1 mL/h/kg and 1.1 ± 0.1 mL/h/kg | 9.9 ± 0.45 µM | 122 ± 7.8 min | 0.0033 L/kg and 0.0033 ± 0.0004 L/kg | 0.1 mL/h/kg | 11.2 ± 0.49 µM | 117 ± 7.2 min | 0.0028 L/kg and 0.0028 ± 0.0003 L/kg | 1.2 mL/h/kg and 1.2 ± 0.2 mL/h/kg | 10.1 ± 0.75 µM | 91.2 ± 29.4 min | 0.0027 ± 0.0009 L/kg | 12 h | 0.009 L/kg | 0.33 mL/h/kg | 0.014 L/kg | 0.67 mL/h/kg | 0.016 L/kg | Tmax [1, 11]: 25.2 ± 11.4 min
